Assay results as given in publication PMC5564600 (Oncotarget, 2017).

Columns and labels:
Test in all cases: biochemical
Format in all cases: binding
panel of 442 kinases [1] = biological target: T1, panel of 442 kinases (Homo sapiens, UniProt Q9UPZ9); conditions: kinase ICK; for remaining activity at 1 µM: read-out: % of control at 1 µM
T1 construct: purchased Ambit Biosciences (scanMAXX KINOMEscan)
T1 sequence (Q9UPZ9 1-632): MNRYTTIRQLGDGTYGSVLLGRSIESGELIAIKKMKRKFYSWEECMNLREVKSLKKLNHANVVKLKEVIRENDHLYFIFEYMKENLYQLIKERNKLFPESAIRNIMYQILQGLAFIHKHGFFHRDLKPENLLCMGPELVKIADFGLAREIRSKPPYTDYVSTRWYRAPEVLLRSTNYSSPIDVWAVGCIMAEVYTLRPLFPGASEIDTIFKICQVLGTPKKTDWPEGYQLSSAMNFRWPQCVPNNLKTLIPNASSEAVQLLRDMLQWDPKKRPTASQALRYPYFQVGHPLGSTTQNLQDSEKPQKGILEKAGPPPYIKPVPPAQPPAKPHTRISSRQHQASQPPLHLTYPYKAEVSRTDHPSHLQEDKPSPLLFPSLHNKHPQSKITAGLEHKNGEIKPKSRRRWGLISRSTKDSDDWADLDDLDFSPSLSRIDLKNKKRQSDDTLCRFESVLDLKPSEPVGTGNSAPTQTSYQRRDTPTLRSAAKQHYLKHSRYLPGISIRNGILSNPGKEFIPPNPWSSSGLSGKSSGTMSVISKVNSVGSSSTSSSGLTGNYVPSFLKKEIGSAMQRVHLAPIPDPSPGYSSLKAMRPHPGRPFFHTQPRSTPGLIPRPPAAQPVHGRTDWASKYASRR

panel of 442 kinases [2] = biological target: T2, panel of 442 kinases (Homo sapiens, UniProt Q6P3R8); conditions: kinase NEK5; for remaining activity at 1 µM: read-out: % of control at 1 µM
T2 construct: purchased Ambit Biosciences (scanMAXX KINOMEscan)
T2 sequence (Q6P3R8 1-708): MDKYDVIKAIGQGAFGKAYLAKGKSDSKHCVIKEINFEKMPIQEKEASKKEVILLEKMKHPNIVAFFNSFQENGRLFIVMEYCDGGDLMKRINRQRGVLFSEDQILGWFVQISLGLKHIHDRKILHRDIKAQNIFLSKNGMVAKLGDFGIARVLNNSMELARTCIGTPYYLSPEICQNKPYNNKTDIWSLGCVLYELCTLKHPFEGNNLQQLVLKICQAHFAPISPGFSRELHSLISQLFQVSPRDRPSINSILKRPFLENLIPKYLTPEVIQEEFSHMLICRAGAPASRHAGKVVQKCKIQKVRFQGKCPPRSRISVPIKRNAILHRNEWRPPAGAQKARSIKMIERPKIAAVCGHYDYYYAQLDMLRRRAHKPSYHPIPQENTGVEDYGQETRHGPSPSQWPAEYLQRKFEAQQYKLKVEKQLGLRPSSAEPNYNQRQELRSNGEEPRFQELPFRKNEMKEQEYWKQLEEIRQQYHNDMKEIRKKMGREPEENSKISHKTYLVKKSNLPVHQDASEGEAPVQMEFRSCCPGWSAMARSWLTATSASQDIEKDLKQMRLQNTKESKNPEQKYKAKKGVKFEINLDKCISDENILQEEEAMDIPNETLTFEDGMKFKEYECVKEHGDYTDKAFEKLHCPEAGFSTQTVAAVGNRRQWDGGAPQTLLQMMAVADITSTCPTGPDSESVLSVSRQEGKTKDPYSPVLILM

panel of 442 kinases [3] = biological target: T3, panel of 442 kinases (Homo sapiens, UniProt Q13164); conditions: ERK5; for remaining activity at 1 µM: read-out: % of control at 1 µM
T3 construct: purchased Ambit Biosciences (scanMAXX KINOMEscan)
T3 sequence (Q13164 whole entry): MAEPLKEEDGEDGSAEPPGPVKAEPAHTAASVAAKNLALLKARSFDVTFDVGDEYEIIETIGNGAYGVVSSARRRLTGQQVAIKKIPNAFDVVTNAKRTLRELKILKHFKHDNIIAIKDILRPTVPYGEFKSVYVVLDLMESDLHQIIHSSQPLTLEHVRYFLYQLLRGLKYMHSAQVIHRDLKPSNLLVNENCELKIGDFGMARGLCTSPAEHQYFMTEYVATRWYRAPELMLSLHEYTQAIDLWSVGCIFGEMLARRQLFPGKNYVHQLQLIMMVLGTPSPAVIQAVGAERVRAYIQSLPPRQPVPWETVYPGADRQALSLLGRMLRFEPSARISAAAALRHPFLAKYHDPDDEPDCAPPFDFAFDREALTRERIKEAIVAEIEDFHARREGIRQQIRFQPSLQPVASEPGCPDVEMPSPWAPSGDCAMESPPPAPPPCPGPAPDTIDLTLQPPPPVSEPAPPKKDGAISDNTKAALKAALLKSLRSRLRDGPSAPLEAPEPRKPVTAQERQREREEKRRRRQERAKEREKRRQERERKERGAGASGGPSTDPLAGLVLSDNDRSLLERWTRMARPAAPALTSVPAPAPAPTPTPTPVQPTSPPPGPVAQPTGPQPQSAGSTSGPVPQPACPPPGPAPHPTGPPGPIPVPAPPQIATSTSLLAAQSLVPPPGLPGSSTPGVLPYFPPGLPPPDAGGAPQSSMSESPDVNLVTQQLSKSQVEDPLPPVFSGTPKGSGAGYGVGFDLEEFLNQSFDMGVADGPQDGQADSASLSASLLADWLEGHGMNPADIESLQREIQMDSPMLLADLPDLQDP

panel of 442 kinases [4] = biological target: T4, panel of 442 kinases (Homo sapiens, UniProt P15056, V600E); conditions: BRAF(V600E); for remaining activity at 1 µM: read-out: % of control at 1 µM
T4 construct: purchased Ambit Biosciences (scanMAXX KINOMEscan)
T4 sequence (P15056 whole entry V600E): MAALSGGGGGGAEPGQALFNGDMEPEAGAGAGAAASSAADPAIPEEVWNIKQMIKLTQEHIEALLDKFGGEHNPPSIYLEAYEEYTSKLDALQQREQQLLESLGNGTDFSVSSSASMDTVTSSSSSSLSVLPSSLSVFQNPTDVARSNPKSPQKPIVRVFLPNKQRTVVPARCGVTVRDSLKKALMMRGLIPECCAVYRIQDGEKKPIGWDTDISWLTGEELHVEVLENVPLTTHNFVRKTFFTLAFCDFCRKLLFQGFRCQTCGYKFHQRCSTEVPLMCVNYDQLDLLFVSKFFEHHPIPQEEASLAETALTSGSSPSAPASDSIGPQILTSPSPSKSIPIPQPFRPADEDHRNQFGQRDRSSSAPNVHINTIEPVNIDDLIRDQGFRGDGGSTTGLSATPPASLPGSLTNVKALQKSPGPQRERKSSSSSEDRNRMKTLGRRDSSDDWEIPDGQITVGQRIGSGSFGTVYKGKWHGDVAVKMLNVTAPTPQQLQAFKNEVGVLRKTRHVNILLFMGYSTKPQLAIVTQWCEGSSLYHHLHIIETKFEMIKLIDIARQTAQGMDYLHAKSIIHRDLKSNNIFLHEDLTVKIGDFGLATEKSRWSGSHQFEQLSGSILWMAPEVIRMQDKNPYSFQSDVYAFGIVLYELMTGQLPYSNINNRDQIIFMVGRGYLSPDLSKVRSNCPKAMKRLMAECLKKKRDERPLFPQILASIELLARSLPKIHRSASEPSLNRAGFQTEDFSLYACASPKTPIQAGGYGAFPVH

panel of 442 kinases [5] = biological target: T5, panel of 442 kinases (Homo sapiens, UniProt Q9NRM7); conditions: kinase LATS2; for remaining activity at 1 µM: read-out: % of control at 1 µM
T5 construct: purchased Ambit Biosciences (scanMAXX KINOMEscan)
T5 sequence (Q9NRM7 1-1088): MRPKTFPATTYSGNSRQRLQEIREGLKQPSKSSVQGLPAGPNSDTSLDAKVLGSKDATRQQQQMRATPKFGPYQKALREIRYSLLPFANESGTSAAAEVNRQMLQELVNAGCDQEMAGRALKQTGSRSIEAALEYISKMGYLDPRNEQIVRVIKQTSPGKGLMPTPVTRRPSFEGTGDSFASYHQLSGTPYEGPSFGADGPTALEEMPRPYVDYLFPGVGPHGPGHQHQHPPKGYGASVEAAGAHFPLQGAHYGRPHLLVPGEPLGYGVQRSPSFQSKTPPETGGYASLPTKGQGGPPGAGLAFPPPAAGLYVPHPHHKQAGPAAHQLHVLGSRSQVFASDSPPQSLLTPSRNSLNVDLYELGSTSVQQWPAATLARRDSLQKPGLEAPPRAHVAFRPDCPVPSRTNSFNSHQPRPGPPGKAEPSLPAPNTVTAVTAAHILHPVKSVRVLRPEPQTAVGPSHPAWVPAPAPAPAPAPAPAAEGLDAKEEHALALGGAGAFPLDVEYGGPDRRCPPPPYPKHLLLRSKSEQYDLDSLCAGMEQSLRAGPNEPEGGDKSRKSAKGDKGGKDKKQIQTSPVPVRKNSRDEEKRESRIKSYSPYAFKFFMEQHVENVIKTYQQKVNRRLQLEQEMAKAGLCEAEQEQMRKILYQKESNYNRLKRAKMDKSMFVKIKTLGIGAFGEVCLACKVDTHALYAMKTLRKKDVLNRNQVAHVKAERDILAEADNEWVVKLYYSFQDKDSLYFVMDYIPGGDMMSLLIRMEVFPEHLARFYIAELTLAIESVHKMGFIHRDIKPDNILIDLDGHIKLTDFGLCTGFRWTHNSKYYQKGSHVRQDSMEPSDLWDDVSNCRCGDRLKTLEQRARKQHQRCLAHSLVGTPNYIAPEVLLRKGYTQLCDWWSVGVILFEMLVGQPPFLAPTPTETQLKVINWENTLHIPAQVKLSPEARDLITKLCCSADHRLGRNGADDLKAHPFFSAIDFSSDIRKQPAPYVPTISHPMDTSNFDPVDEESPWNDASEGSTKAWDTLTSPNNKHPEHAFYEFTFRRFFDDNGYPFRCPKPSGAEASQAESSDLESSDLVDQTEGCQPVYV

panel of 442 kinases [6] = biological target: T6, panel of 442 kinases (Homo sapiens, UniProt P42338); conditions: kinase PIK3CB; 1 µM; read-out: % of control at 1 µM
T6 construct: purchased Ambit Biosciences (scanMAXX KINOMEscan)
T6 sequence (P42338 whole entry): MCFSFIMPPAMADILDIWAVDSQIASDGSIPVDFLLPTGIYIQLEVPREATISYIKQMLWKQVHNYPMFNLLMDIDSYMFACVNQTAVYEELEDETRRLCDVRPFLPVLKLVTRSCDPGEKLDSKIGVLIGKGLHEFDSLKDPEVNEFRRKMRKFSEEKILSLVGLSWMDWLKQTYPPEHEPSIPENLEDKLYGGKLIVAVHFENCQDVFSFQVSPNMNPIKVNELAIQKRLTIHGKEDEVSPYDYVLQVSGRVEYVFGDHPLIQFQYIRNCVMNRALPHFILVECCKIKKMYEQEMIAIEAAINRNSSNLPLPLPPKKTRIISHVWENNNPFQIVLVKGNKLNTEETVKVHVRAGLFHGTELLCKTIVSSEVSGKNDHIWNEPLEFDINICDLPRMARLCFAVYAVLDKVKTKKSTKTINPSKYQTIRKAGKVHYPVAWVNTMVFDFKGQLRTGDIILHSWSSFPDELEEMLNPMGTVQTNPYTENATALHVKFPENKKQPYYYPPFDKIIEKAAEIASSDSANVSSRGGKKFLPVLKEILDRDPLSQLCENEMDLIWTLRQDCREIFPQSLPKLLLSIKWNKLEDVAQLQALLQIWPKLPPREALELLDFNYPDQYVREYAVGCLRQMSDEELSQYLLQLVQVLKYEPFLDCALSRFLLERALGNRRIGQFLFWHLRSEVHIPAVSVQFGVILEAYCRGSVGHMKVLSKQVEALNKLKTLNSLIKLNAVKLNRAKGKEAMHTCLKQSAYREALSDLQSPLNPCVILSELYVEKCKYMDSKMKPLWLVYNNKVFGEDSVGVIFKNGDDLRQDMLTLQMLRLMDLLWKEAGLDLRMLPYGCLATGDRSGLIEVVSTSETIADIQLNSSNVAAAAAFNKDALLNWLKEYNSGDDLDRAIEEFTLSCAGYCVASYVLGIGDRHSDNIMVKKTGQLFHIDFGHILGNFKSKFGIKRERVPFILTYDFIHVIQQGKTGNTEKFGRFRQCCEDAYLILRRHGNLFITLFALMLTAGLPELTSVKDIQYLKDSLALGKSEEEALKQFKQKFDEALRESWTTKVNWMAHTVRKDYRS

[7] = 10 µM, read-out: % of control at 10 µM

Work on `Nc1cc(C(F)(F)F)c(-c2cc(N3CCOCC3)nc(N3CCOCC3)n2)cn1` [Buparlisib] yielded a remaining activity at 1 µM (panel of 442 kinases [1]) of 92%, a remaining activity at 10 µM (panel of 442 kinases [1]; [7]) of 100% and a remaining activity at 1 µM (panel of 442 kinases [2]) of 100%. The remaining activity at 10 µM (panel of 442 kinases [2]; [7]) was 88%, the remaining activity at 1 µM (panel of 442 kinases [3]) was 84% and the remaining activity at 10 µM (panel of 442 kinases [3]; [7]) was 100%. The remaining activity at 1 µM (panel of 442 kinases [4]) was 74%, the remaining activity at 10 µM (panel of 442 kinases [4]; [7]) was 44% and the remaining activity at 1 µM (panel of 442 kinases [5]) was 75%. It also gave a remaining activity at 10 µM (panel of 442 kinases [5]; [7]) of 100%.

Compound `Cn1c(=O)n(-c2ccc(C(C)(C)C#N)cc2)c2c3cc(-c4cnc5ccccc5c4)ccc3ncc21` [Dactolisib, 2-methyl-2-[4-(3-methyl-2-oxo-8-quinolin-3-yl-2,3-dihydroimidazo[4,5-c]quinolin-1-yl)-phenyl] propionitrile] has a remaining activity at 1 µM (panel of 442 kinases [6]) of 64%, a remaining activity at 1 µM (panel of 442 kinases [1]) of 68% and a remaining activity at 1 µM (panel of 442 kinases [2]) of 62%. The remaining activity at 1 µM (panel of 442 kinases [4]) was 82% and the remaining activity at 1 µM (panel of 442 kinases [5]) was 100%.

Work on `COc1ncc(-c2ccc3nccc(-c4ccnnc4)c3c2)cc1NS(=O)(=O)c1ccc(F)cc1F` [Omipalisib] yielded a remaining activity at 1 µM (panel of 442 kinases [6]) of 0%, a remaining activity at 1 µM (panel of 442 kinases [1]) of 87% and a remaining activity at 1 µM (panel of 442 kinases [2]) of 100%. For the same compound, the remaining activity at 1 µM (panel of 442 kinases [3]) was 87% and the remaining activity at 1 µM (panel of 442 kinases [5]) was 100%.

`FC(F)c1nc2ccccc2n1-c1nc(N2CCOCC2)nc(N2CCOCC2)n1` [ZSTK474, 2-(difluoromethyl)-1-[4,6-di(4-morpholinyl)-1,3,5-triazin-2-yl]-1H-benzimidazole] showed a remaining activity at 1 µM (panel of 442 kinases [6]) of 0%, a remaining activity at 1 µM (panel of 442 kinases [1]) of 89% and a remaining activity at 1 µM (panel of 442 kinases [2]) of 89%. It also gave a remaining activity at 1 µM (panel of 442 kinases [3]) of 97%, a remaining activity at 1 µM (panel of 442 kinases [4]) of 56% and a remaining activity at 1 µM (panel of 442 kinases [5]) of 100%.
